Experiments:
Trichomonas vaginalis = assay: in vivo activity against Trichomonas vaginalis (ED50, per os, mice) and therapeutic index; details: for ED50: po, Trichomonas vaginalis
From the text: (§1) The inventive compounds have very interesting antimicrobial and amoebicidal utilities which are ascertained through the usual and well known in vitro tests. Moreover, they display an outstanding in vivo activity against Trichomonas vaginalis, a protozoan which is responsible for itching and other painful and troublesome diseases of the vaginal tract. Their in vivo activity, expressed as an ED50 value, is better than that of other known 2-nitroimidazole derivatives, and their activity is, moreover, coupled with a very low toxicity, expressed as an LD50 value. These properties indicate that the compounds of the invention are very promising anti-Trichomonas agents both from the effectiveness and the safety standpoint, owing to their […] and their high therapeutic indexes (T.I.). Since a therapeutic index is expressed by the following ratio: [formula] it is clear that the higher the T.I., the safer a drug is.
In the following Table, results representative of the inventive compounds are reported.

[1] = toxicity (LD50, per os, mice); type: in vivo
From the text: as §1

Cn1c(C(C)(C)OC(=O)Oc2ccccc2)cnc1[N+](=O)[O-] [Example 1, α, α,1-Trimethyl-2-nitroimidazole-5-methanol phenylcarbonate]
T.I. (LD50/ED50) (Trichomonas vaginalis; per os, mice): 1969
ED50 (Trichomonas vaginalis; per os, mice): 1.65 mg/kg
T.I. compared with metronidazole, in words (Trichomonas vaginalis; vs metronidazole, LD50/ED50): better T.I. than metronidazole
ED50 compared with metronidazole, in words (Trichomonas vaginalis; vs metronidazole, per os, mice): better ED50
LD50 [1]: 3250 mg/kg

Cc1ncc([N+](=O)[O-])n1CCO [metronidazole, 1-(2-hydroxyethyl)-2-methyl-5-nitroimidazole, reference compound]
T.I. (LD50/ED50) (Trichomonas vaginalis; per os, mice): 658
ED50 (Trichomonas vaginalis; per os, mice): 5.77 mg/kg
LD50 [1]: 3800 mg/kg
